Tests used:
Homo sapiens [1] = species: Homo sapiens; experiment: Inhibition of human protein kinase A at 10 uM relative to control
Homo sapiens [2] = species: Homo sapiens; experiment: Inhibition of human PDE3A1A at 10 uM relative to control
[3] = target: Neuropeptide Y receptor type 2 (Homo sapiens) (UniProt P49146); experiment: Inhibition of human NPY2R expressed in CHO-K1 cells at 10 uM relative to control; type: cell-based
[4] = target: Substance-P receptor (Homo sapiens) (UniProt P25103); experiment: Inhibition of human NK1 at 10 uM relative to control
[5] = target: B2 bradykinin receptor (Homo sapiens) (UniProt P30411); experiment: Inhibition of BKR2 (unknown origin) at 10 uM relative to control
[6] = target: Type-1 angiotensin II receptor (Homo sapiens) (UniProt P30556); experiment: Inhibition of human AT1 receptor expressed in CHO-K1 cells at 10 uM relative to control; type: cell-based
[7] = target: Cysteinyl leukotriene receptor 1 (Homo sapiens) (UniProt Q9Y271); experiment: Inhibition of human CYSLTR1 expressed in CHO-K1 cells at 10 uM relative to control; type: cell-based
Chain of Cysteinyl leukotriene receptor 1 (Homo sapiens) (Q9Y271 whole entry): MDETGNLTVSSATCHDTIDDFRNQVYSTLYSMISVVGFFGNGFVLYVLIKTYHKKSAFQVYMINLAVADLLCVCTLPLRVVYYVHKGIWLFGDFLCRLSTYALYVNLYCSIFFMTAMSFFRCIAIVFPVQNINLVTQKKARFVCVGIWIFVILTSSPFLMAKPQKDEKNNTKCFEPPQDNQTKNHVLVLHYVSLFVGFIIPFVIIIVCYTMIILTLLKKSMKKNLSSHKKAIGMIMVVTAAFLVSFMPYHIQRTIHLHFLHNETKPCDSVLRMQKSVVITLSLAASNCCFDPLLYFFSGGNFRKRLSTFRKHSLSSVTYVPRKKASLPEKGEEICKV

[8] = target: Leukotriene B4 receptor 1 (Homo sapiens) (UniProt Q15722); experiment: Inhibition of human BLT expressed in CHO-K1 cells at 10 uM relative to control; type: cell-based
Homo sapiens [9] = species: Homo sapiens; experiment: Inhibition of sodium channel site2 (unknown origin) at 10 uM relative to control
hERG (KCNH2) = hERG (KCNH2) (Homo sapiens, UniProt Q12809); experiment: Inhibition of human ERG in HEK293 cells at 10 uM relative to control; type: cell-based; details: HEK293 cells that express hERG
Chain of hERG (KCNH2) (Q12809 whole entry): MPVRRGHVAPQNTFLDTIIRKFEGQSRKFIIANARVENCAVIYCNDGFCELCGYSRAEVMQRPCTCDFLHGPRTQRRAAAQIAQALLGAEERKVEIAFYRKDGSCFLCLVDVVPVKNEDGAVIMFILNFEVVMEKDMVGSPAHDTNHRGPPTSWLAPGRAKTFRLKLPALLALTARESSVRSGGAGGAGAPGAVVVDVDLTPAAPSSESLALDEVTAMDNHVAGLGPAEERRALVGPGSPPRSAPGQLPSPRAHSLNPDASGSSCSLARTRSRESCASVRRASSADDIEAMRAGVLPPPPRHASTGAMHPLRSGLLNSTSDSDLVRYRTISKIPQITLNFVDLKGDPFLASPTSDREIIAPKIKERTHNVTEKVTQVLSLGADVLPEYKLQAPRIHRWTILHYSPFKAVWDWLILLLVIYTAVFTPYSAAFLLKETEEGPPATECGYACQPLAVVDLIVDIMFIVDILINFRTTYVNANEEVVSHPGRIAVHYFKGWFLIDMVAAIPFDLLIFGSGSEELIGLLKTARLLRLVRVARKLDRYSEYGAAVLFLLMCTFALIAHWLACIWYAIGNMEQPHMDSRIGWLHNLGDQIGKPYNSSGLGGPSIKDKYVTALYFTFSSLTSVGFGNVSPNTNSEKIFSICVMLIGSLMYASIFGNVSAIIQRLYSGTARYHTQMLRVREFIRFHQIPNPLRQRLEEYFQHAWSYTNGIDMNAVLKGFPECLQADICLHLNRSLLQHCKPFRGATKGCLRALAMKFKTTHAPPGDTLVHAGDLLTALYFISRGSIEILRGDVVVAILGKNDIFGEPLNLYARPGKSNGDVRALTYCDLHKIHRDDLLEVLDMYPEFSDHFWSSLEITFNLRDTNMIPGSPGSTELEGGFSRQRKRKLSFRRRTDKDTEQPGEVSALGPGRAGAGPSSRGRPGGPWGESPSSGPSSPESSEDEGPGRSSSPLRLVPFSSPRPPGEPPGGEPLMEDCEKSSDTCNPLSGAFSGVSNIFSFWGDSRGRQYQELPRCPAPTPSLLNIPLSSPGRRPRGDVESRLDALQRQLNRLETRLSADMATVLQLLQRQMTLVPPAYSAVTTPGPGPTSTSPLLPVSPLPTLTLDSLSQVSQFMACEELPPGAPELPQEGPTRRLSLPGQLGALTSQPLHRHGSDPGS

Homo sapiens [10] = species: Homo sapiens; experiment: Inhibition of GABA receptor chloride/TBOB site (unknown origin) at 10 uM relative to control
[11] = target: Sigma intracellular receptor 2 (Homo sapiens) (UniProt Q5BJF2); experiment: Inhibition of sigma 2 receptor (unknown origin) at 10 uM relative to control
Chain of Sigma intracellular receptor 2 (Homo sapiens) (Q5BJF2 whole entry): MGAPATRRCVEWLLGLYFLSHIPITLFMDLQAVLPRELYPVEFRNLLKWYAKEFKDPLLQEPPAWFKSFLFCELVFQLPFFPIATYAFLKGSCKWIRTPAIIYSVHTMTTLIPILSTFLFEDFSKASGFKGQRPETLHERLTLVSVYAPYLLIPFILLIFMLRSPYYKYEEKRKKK

Homo sapiens [12] = species: Homo sapiens; experiment: Inhibition of human 5HT-6 receptor at 10 uM relative to control
[13] = target: 5-hydroxytryptamine receptor 2C (Homo sapiens) (UniProt P28335); experiment: Inhibition of human 5HT-2C receptor at 10 uM relative to control
Chain of 5-hydroxytryptamine receptor 2C (Homo sapiens) (P28335 whole entry): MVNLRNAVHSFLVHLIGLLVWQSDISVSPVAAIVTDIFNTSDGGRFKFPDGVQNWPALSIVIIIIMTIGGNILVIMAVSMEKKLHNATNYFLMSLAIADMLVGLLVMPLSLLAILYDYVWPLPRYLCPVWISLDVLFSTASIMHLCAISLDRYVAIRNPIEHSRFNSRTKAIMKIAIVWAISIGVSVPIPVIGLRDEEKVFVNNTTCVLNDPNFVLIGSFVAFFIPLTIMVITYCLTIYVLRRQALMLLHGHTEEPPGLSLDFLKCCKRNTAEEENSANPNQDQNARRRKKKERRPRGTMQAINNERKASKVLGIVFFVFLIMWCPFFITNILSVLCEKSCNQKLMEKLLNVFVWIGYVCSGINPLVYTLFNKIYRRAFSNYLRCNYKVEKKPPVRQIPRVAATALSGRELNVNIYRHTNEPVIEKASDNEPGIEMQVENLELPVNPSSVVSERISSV

[14] = target: 5-hydroxytryptamine receptor 2A (Homo sapiens, UniProt P28223); experiment: Inhibition of human 5HT-2A receptor expressed in CHO-K1 cells at 10 uM relative to control; type: cell-based
Chain of 5-hydroxytryptamine receptor 2A (P28223 whole entry): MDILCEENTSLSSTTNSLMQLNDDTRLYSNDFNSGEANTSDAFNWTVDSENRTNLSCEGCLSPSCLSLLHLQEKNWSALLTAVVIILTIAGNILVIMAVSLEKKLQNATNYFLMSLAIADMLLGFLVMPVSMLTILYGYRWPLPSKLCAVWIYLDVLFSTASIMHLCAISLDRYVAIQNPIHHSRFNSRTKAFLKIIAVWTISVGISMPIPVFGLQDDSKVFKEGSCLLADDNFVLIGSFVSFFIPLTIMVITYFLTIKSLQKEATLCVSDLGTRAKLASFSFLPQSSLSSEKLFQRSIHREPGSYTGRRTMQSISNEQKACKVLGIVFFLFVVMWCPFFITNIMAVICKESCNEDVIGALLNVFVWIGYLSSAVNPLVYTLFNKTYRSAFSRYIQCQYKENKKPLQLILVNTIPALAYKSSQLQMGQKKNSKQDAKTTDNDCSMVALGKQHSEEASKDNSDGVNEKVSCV

Homo sapiens [15] = species: Homo sapiens; experiment: Inhibition of human delta 2-type opioid receptor at 10 uM relative to control
[16] = target: Muscarinic acetylcholine receptor M4 (Homo sapiens) (UniProt P08173); experiment: Inhibition of human muscarinic M4 receptor expressed in CHO-K1 cells at 10 uM relative to control; type: cell-based
[17] = target: Histamine H1 receptor (Homo sapiens) (UniProt P35367); experiment: Inhibition of human histamine H1 receptor expressed in CHO-K1 cells at 10 uM relative to control; type: cell-based
Homo sapiens [18] = species: Homo sapiens; experiment: Inhibition of Glutamate receptor ionotropic NMDA glycine,strychnine-sensitive site (unknown origin) at 10 uM relative to control
Homo sapiens [19] = species: Homo sapiens; experiment: Inhibition of Glutamate receptor ionotropic NMDA phencyclidine site (unknown origin) at 10 uM relative to control
[20] = target: Gamma-aminobutyric acid type B receptor subunit 1 (Homo sapiens) (UniProt Q9UBS5); experiment: Inhibition of human GABA-B1 at 10 uM relative to control
[21] = target: Gamma-aminobutyric acid receptor subunit alpha-1 (Homo sapiens) (UniProt P14867); experiment: Inhibition of GABA-A alpha1 BDZ site (unknown origin) at 10 uM relative to control
D(3) dopamine receptor = D(3) dopamine receptor (Homo sapiens, UniProt P35462); experiment: Inhibition of human dopamine D3 receptor expressed in CHO-K1 cells at 10 uM relative to control; type: cell-based
[22] = target: D(1A) dopamine receptor (Homo sapiens) (UniProt P21728); experiment: Inhibition of human dopamine D1 receptor at 10 uM relative to control
Chain of D(1A) dopamine receptor (Homo sapiens) (P21728 whole entry): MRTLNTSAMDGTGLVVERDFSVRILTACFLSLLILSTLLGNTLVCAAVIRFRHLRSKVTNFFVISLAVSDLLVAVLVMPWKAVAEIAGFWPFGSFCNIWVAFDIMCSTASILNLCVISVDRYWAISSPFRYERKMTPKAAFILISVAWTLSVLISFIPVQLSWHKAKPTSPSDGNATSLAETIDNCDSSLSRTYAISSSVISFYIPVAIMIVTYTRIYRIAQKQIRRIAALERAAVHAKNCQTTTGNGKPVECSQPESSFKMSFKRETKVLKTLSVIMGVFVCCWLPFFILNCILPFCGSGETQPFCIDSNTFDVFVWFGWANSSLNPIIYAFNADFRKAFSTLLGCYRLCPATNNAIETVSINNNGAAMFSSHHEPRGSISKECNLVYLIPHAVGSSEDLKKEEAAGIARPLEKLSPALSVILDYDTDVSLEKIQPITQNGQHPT

[23] = target: Beta-2 adrenergic receptor (Homo sapiens) (UniProt P07550); experiment: Inhibition of human adrenergic receptor beta2 expressed in CHO-K1 cells at 10 uM relative to control; type: cell-based
Chain of Beta-2 adrenergic receptor (Homo sapiens) (P07550 whole entry, looked up): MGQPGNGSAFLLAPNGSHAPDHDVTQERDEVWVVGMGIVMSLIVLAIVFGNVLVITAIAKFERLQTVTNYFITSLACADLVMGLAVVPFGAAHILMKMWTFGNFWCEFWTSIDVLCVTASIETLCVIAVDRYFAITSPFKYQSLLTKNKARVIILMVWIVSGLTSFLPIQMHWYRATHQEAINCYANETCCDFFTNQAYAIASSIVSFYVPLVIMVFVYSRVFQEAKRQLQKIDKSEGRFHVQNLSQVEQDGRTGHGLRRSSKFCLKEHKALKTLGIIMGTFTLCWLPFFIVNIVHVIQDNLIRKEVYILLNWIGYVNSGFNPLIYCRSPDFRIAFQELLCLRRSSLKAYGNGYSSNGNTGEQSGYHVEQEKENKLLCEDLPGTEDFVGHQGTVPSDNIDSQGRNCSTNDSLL

[24] = target: Beta-1 adrenergic receptor (Homo sapiens) (UniProt P08588); experiment: Inhibition of human adrenergic receptor beta1 expressed in CHO-K1 cells at 10 uM relative to control; type: cell-based
[25] = target: Alpha-2B adrenergic receptor (Homo sapiens) (UniProt P18089); experiment: Inhibition of human adrenergic receptor alpha2B expressed in CHO-K1 cells at 10 uM relative to control; type: cell-based
Chain of Alpha-2B adrenergic receptor (Homo sapiens) (P18089 whole entry): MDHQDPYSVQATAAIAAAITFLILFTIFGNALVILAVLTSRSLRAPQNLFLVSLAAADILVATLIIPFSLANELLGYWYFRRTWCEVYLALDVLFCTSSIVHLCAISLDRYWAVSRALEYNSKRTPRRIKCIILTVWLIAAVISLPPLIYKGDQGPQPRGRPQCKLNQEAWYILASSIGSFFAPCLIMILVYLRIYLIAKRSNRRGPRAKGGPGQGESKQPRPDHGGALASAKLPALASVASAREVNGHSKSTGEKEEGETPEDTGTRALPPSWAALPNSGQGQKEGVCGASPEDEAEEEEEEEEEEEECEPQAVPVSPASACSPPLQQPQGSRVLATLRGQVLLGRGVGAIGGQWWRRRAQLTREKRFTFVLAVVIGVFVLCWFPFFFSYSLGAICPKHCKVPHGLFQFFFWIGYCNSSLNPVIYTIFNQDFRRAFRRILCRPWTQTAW

[26] = target: Alpha-1B adrenergic receptor (Homo sapiens) (UniProt P35368); experiment: Inhibition of human adrenergic receptor alpha1B expressed in CHO-K1 cells at 10 uM relative to control; type: cell-based
Chain of Alpha-1B adrenergic receptor (Homo sapiens) (P35368 whole entry): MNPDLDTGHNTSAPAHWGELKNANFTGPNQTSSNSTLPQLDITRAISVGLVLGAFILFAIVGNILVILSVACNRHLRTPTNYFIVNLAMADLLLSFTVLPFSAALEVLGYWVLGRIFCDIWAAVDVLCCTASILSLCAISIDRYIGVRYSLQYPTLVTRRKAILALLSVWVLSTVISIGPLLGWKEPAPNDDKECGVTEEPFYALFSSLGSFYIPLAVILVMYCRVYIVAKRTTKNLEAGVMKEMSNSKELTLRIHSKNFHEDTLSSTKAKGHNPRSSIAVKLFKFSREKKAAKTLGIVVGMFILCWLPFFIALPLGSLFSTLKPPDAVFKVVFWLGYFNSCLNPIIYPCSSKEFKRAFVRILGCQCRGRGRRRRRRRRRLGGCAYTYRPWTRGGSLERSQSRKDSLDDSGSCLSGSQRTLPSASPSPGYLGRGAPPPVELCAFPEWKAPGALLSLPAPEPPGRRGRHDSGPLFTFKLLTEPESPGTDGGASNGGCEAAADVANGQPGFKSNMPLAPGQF

Chain of Neuropeptide Y receptor type 2 (Homo sapiens) (P49146 whole entry): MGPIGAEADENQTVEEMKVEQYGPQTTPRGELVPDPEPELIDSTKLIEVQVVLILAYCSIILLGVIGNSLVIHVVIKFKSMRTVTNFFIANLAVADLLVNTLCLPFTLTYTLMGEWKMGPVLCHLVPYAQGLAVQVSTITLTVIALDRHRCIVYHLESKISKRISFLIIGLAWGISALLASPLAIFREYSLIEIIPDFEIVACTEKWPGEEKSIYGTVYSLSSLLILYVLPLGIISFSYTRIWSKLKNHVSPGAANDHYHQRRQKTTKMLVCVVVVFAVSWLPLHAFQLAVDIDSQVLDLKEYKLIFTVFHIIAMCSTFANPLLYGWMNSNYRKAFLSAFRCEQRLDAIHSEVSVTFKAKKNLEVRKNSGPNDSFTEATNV

CN1C(=O)CC[C@H]1c1cccnc1 [COTININE]
< 50%: inhibition (Homo sapiens [1]) | inhibition (Homo sapiens [2]) | inhibition [3] | inhibition [4] | inhibition [5] | inhibition [6] | inhibition [7] | inhibition [8] | inhibition (Homo sapiens [9]) | inhibition at 10 µM (hERG (KCNH2)) | inhibition (Homo sapiens [10]) | inhibition [11] | inhibition (Homo sapiens [12]) | inhibition [13] | inhibition [14] | inhibition (Homo sapiens [15]) | inhibition [16] | inhibition [17] | inhibition (Homo sapiens [18]) | inhibition (Homo sapiens [19]) | inhibition [20] | inhibition [21] | inhibition (D(3) dopamine receptor) | inhibition [22] | inhibition [23] | inhibition [24] | inhibition [25] | inhibition [26]

Reference: ChEMBL document CHEMBL4673260, “Pyridine alkaloids with activity in the central nervous system” (Bioorg Med Chem, 2020)
